Literature values, collected in PMC3372989, “Conformational Differences between Active Angiotensins and Their Inactive Precursors” (Acta Naturae, 2012).

Experiments:
[1] = background statement, no reference printed directly at the statement
[2] = doses needed for immunization (10–50 µg/mouse), even intramuscular and subcutaneous injections
Excerpt: The human and mouse angiotensins 1, as well as angiotensins 2 and 3, have identical amino acid sequences. […] Altogether, it makes angiotensins extremely inconvenient immunogens; however, their conjugation with Hsp70, an adjuvant protein from M. tuberculosis, allowed to overcome the immunological tolerance and to eliminate the toxicity. As a result, we ob ...

receptors of Ang2 = conditions: ref [4]
Excerpt: The oft-cited example of the structural differences between peptides found in their protein precursor and peptides in a free state is human angiotensinogen and its metabolites; i.e. , angiotensins 1, 2 and 3. Angiotensin 1 (Ang1) is a prohormone that consists of 10 amino acid residues and is produced from angiotensinogen as a result of the cleavage of the N-terminal peptide. […] Angiotensin 2 (Ang2) differs from angiotensin 1 by the absence of two C-terminal amino acid resi ...

Row | Substance | physiological activity [1] | fatal outcome on introduction into the body [2] | binding to the receptors of Ang2 (receptors of Ang2)
1 | angiotensin 2 | exhibit physiological activity | leads to a fatal outcome | 
2 | angiotensin 1 | exhibits no physiological activity |  | incapable of binding to the receptors of Ang2
